Test results reported in patent US11630106B2, “Diagnostic test for distinguishing the smoking status of a subject” (PHILIP MORRIS PRODUCTS S.A., priority 2017, dated 2023).
Read-outs that look alike come from different tables or passages of the source. One block for each compound: values may come before it.

How the values were obtained:
[1] = cited from earlier work
[2] = cited from earlier work; for levels of total NNAL: smoking cessation study
[3] = Randomized, controlled, open-label, 3-arm study (CC, SA, SW): total NNAL, CEMA and free cotinine measured in urine; type: in vivo, human; conditions: for Free Cotinine (ng/mL) SA: SA arm; for concentration at 2 day: human, inhaled
Description: The study included healthy smokers switching to a heat-not-burn (smoke-free alternative (SW)) product or those observing smoking abstinence (SA), compared with continuing to use CC, for 5 days in confinement and prolonged by 85 days in an ambulatory setting. This was an ad libitum smoking study. Baseline measurements are taken by allowing the subject to smoke their chosen brand of conventional cigarette for 2 days. After this 2 day period, the subject is then elected to continue smoking conventional cigarettes, to switch to a smoke-free alternative or to abstain from smoking. The investigational period then begins. Methods for measuring each of the metabolites are described in Haziza et al. (2017) Data in Brief 10, 283-293.
During the confinement period, compliance to product/regimen allocation (exclusive use of smoke-free alternative and CC in SW and CC arms, respectively, and full abstinence from smoking in the SA arm) was ensured by strict distribution of each tobacco stick/CC when requested by the subject. During the ambulatory period, the subjects randomized to the SW arm were instructed to exclusively use HNB products and subjects randomized to the SA arm were instructed to abstain from smoking.
Furthermore, the data are represented as boxplots in the figures below. The bottom of the box is the first quartile (value below which 25% of the observations lie), the top is the third quartile (value below which 75% of the observations lie) and the middle bar is the median of the observations. The whiskers extend to the minimum observed value and maximum observe value respectively.

[4] = 24-hour urine, cited from earlier work
[5] = mice; cited from earlier work
[6] = cited from earlier work; remark: listed apart in the source
[7] = cited from earlier work; remark: listed apart in the source
[8] = 15 CPD during 5-day confinement
[9] = 20 CPD during 5-day confinement
[10] = consumers of conventional cigarettes
[11] = consumers of smoke-free alternatives
[12] = intravenous infusion of nicotine in abstinent adult smokers

Compound: CN1CCCC1c1cccnc1 (stereo not shown) [nicotine]
half-life ([1]; in vivo, iv): 2.3 h
share of the inhaled amount metabolized by the liver (first pass effect) ([1]; in vivo): 80-90%
total clearance ([1]; in vivo): about 1200 mL min-1

Compound: O=NN1CCC[C@H]1c1cccnc1 [NNN]
detectability in the urine of non-smokers [2]: Neither NNAL nor NNN are in principle detectable

Compound: CN(CCCC(O)c1cccnc1)N=O (stereo not shown) [Total NNAL, 4-(methylnitrosamino)-1-(3-pyridyl)-1-butanol]
Total NNAL (pg/mL) SW ([3]; SW arm, Day 5, IQR): 17 to 41 pg/mL
total NNAL levels in smoking abstainers ([3]; between day 5 and day 30): 2.5 to 46 pg/mL
levels of urinary NNAL ([2]; 0 CPD during 5-day confinement): 311 ng/24 h
levels of urinary NNAL ([2]; 5 CPD during 5-day confinement): 422 ng/24 h
levels of urinary NNAL [2, 8]: 549 ng/24 h
levels of urinary NNAL [2, 9]: 624 ng/24 h
levels of total NNAL ([2]; after 28 days): 0.26 nmol/24 h
levels of total NNAL ([2]; after 42 days): 0.2 nmol/24 h
levels of total NNAL ([2]; baseline): 2.70 nmol/24 h
levels of total NNAL ([2]; day 56): 0.13 nmol/24 h
decrease of NNAL levels ([2]; smoking cessation/abstinence studies lasting 3 to 8 days): 3- to 4 fold
detectability in the urine of non-smokers [2]: Neither NNAL nor NNN are in principle detectable
urine levels in non-smokers using other tobacco or nicotine replacement products or exposed to second-hand smoke ([2]; urine): ~0.1 nmol
half-life ([2]; usually measured in the urine, estimated): 17 h
baseline total NNAL, range [4, 10]: 84-131 pg/mg creatinine
baseline total NNAL, value in brackets [4, 10]: 105 pg/mg creatinine
average increase at day 5 compared to baseline [4, 10]: 3.9%
change at day 5 compared to baseline, range [4, 10]: −2.8% to 10.5%
total NNAL at day 5, range [4, 10]: 85-133 pg/mg creatinine
total NNAL at day 5, value in brackets [4, 10]: 107 pg/mg creatinine
baseline total NNAL, range [4, 11]: 95-129 pg/mg creatinine
baseline total NNAL, value in brackets [4, 11]: 111 pg/mg creatinine
average decrease at day 5 compared to baseline [4, 11]: −54%
change at day 5 compared to baseline, range [4, 11]: −57% to −51%
total NNAL at day 5, range [4, 11]: 42-58 pg/mg creatinine
total NNAL at day 5, value in brackets [4, 11]: 49 pg/mg creatinine
baseline total NNAL, range ([4]; smoking abstainers): 94-150 pg/mg creatinine
baseline total NNAL, value in brackets ([4]; smoking abstainers): 119 pg/mg creatinine
average decrease at day 5 compared to baseline ([4]; smoking abstainers): −63.9%
decrease at day 5 compared to baseline, range ([4]; smoking abstainers): −67 to −61%
total NNAL at day 5, range ([4]; smoking abstainers): 31-54 pg/mg creatinine
total NNAL at day 5, value in brackets ([4]; smoking abstainers): 41 pg/mg creatinine

Compound: CN1C(=O)[C@H](O)C[C@H]1c1cccnc1 (relative stereo) [trans-3′-hydroxycotinine]
share of the dose of nicotine accounted for by the metabolite [5]: 40-60%
total clearance ([1]; in vivo): about 82 mL min-1
half-life [1, 12]: 6.6 h

Compound: CC(=O)N[C@@H](CSCCC#N)C(=O)O [CEMA, 2-cyanoethylmercapturic acid]
levels of urinary CEMA ([6]; 0 CPD during 5-day confinement): 38.3 μg/24 h
levels of urinary CEMA ([6]; 5 CPD during 5-day confinement): 93.2 μg/24 h
levels of urinary CEMA [6, 8]: 168.0 μg/24 h
levels of urinary CEMA [6, 9]: 218.0 μg/24 h
CEMA excreted (mean±SD) ([6]; non-smokers): 4.6 ± 35 µg/L
CEMA excreted (second value, 'or') ([6]; non-smokers): 1.9 µg/L
urinary excretion of CEMA, range ([6]; non-smokers): below 2 ng/mL
CEMA excreted (mean±SD) ([6]; smokers): 187 ± 181 µg/L
CEMA excreted (second value, 'or') ([6]; smokers): 184 µg/L
urinary excretion of CEMA, range ([6]; smokers): 20 to 205 ng/mL
lowering of CEMA levels in urine ([6]; smoking cessation studies of 5 to 8 days): 7- to 10 fold
baseline CEMA, range [4, 10]: 83-115 ng/mg creatinine
baseline CEMA, value in brackets [4, 10]: 98 ng/mg creatinine
average increase at day 5 compared to baseline [4, 10]: 4.2%
change at day 5 compared to baseline, range [4, 10]: −4% to 12%
CEMA at day 5, range [4, 10]: 85-115 ng/mg creatinine
CEMA at day 5, value in brackets [4, 10]: 99.5 ng/mg creatinine
baseline CEMA, range [4, 11]: 85-112 ng/mg creatinine
baseline CEMA, value in brackets [4, 11]: 98 ng/mg creatinine
average decrease at day 5 compared to baseline [4, 11]: −86%
change at day 5 compared to baseline, range [4, 11]: −87% to −85%
CEMA at day 5, range [4, 11]: 11-15 ng/mg creatinine
CEMA at day 5, value in brackets [4, 11]: 13 ng/mg creatinine
baseline CEMA, range ([4]; smoking abstainers): 89-119 ng/mg creatinine
baseline CEMA, value in brackets ([4]; smoking abstainers): 103 ng/mg creatinine
average decrease at day 5 compared to baseline ([4]; smoking abstainers): −86%
decrease at day 5 compared to baseline, range ([4]; smoking abstainers): −88 to −85%
CEMA at day 5, range ([4]; smoking abstainers): 10-15 ng/mg creatinine
CEMA at day 5, value in brackets ([4]; smoking abstainers): 12 ng/mg creatinine

Compound: C[N+]1([O-])CCC[C@H]1c1cccnc1 (stereo partly shown) [nicotine-1′-N-oxide]
share of the nicotine absorbed by smokers (minor metabolite) ([1]; in vivo): 4-7%

Free Cotinine (ng/mL) SA ([3]; Day 2, IQR, listed as cotinine): 339 to 959 ng/mL
Free Cotinine (ng/mL) SA ([3]; Day 2, IQR, listed as free cotinine): 128 to 313 ng/mL
concentration at 2 day ([3]; SW arm, Day 2, IQR, read-out: Free Cotinine (ng/mL) SW): 546 to 1160 ng/mL
concentration at 2 day ([3]; day 2, read-out: cotinine levels in conventional cigarette smokers): 459 to 1350 ng/mL
Compound: CN1C(=O)CC[C@H]1c1cccnc1 [Free Cotinine, cotinine]
share of the dose of nicotine accounted for by the metabolite [5]: about 15%
in vivo half-life ([1]; in vivo): about 20 hours
total clearance ([1]; in vivo): 45 mL/min
half-life [1, 12]: 17.5 h
cotinine levels indicative of heavy smoker status ([7]; consuming more than 20 cigarettes a day): above 300 ng/mL
cotinine levels indicative of no active smoking ([7]; in vivo): < 10 ng/mL
cotinine levels in active smokers ([7]; saliva): ≥ 100 ng/mL
detectability after smoking abstinence ([7]; urine, saliva or blood): no longer detectable in urine, saliva or blood after about two days of smoking abstinence
cotinine levels in active smokers ([7]; urine): ≥ 500 ng/mL
